{"source": "PubChem BioAssay AID1205", "about": "(EPA DSSTox, 2008)", "note": "Calls of active or inactive are those of the source.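 Rule for the calls: active = tumour findings in long-term animal cancer tests in more than one sex, species or organ; inactive = no tumour finding and more than one negative test.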"}
{"assay": "DSSTox (CPDBAS) Carcinogenic Potency Database Summary MultiCellCall Results", "conditions": "animal carcinogenicity bioassays, multi-cell call summary", "how_it_was_run": "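Summary call drawn from chronic long-term cancer bioassays in rats, mice, hamsters, dogs and nonhuman primates, using the most positive result per sex-species. Score: multispecies=50, multisex=30, multisite=20, summed for combinations.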"}
{"smiles": "CN(C)CCOC(c1ccccc1)c1ccccc1", "outcome": "inactive; multisex inactive; multispecies inactive"}
{"smiles": "CC(=O)Nc1ccc2c(c1)Cc1cc(NC(C)=O)ccc1-2", "outcome": "inactive; multispecies inactive"}
{"smiles": "NNC(N)=S", "outcome": "inactive; multisex inactive; multispecies inactive"}
{"smiles": "Cc1ccc(N)cc1Cl", "outcome": "inactive; multisex inactive; multispecies inactive"}
{"smiles": "CNNC", "outcome": "active; multisite active; multisex active; multispecies active"}
{"smiles": "ClC(Cl)C(Cl)Cl", "outcome": "active; multisex active"}
{"smiles": "CCN(CC)CCCNC(=O)Cn1ncc(-c2ccccc2)c1-c1ccccc1", "outcome": "inactive; multisex inactive"}
{"smiles": "CC(C)(CCCOc1ccc(OCCCC(C)(C)C(=O)O)c(-c2ccccc2)c1)C(=O)O", "outcome": "active; multisex active"}
{"smiles": "Cc1cc(Cl)ccc1N", "outcome": "active; multisex active"}
{"smiles": "CN(C)C(=O)Nc1ccc(Cl)cc1", "outcome": "active; multisite active"}
{"smiles": "COc1ccc([N+](=O)[O-])cc1N=Nc1c(O)c(C(=O)Nc2cccc([N+](=O)[O-])c2)cc2ccccc12", "outcome": "inactive; multisex inactive; multispecies inactive"}
{"smiles": "NC(=O)CCCCn1ccc(NC(N)=NCC(F)(F)F)n1", "outcome": "active; multisex active; multispecies active"}
{"smiles": "CC(O)CO", "note": "(stereo not given)", "outcome": "inactive; multisex inactive"}
{"smiles": "CN(CCc1ccccc1)N=O", "outcome": "active; multisite active"}
{"smiles": "N[C@@H](CCC(=O)NNc1ccc(CO)cc1)C(=O)O", "outcome": "inactive; multisex inactive"}
{"smiles": "ClC1=C(Cl)C(Cl)(Cl)C(Cl)=C1Cl", "outcome": "inactive; multisex inactive; multispecies inactive"}
{"smiles": "CNC(=O)Oc1cc(C)c(N(C)C)c(C)c1", "outcome": "inactive; multisex inactive; multispecies inactive"}
{"smiles": "Cc1ncc[nH]1", "outcome": "active; multisite active; multisex active; multispecies active"}
{"smiles": "CCCCCN(N=O)C(N)=O", "outcome": "active; multisite active; multisex active"}
{"smiles": "Clc1ccc2c(c1)Oc1ccc(Cl)cc1O2", "outcome": "inactive; multisex inactive; multispecies inactive"}
{"smiles": "COc1ccc(C(Cl)=C(c2ccc(OC)cc2)c2ccc(OC)cc2)cc1", "outcome": "inactive; multisex inactive"}
{"smiles": "O=C(Nc1ccc2c(c1)Cc1ccccc1-2)C(F)(F)F", "outcome": "active; multisite active"}
{"smiles": "C=C1C[C@]23C[C@@]1(O)CC[C@H]2[C@@]12C=C[C@H](O)[C@@](C)(C(=O)O1)[C@H]2[C@@H]3C(=O)O", "outcome": "inactive; multisex inactive"}
{"smiles": "Nc1c(Cl)c(Cl)nc(C(=O)O)c1Cl", "outcome": "inactive; multisex inactive; multispecies inactive"}
{"smiles": "CCCc1ccc2c(c1)OCO2", "outcome": "active; multisite active; multisex active; multispecies active"}
{"smiles": "COc1ccccc1[N+](=O)[O-]", "outcome": "active; multisite active; multisex active; multispecies active"}
{"smiles": "Oc1ccc(O)cc1", "outcome": "active; multisite active; multisex active; multispecies active"}
{"smiles": "Clc1ccc(C(c2ccccc2Cl)C(Cl)Cl)cc1", "note": "(stereo not given)", "outcome": "inactive; multisex inactive"}
{"smiles": "O=NN1CCCC1", "outcome": "active; multisite active; multisex active; multispecies active"}
{"smiles": "C=CCN(N)CC=C", "outcome": "active; multisite active; multisex active"}
{"smiles": "Cc1cc(C)c(N)cc1C", "outcome": "active; multisite active; multisex active; multispecies active"}
{"smiles": "O=C1c2ccccc2C(=O)c2c(O)cccc21", "outcome": "active; multisite active"}
{"smiles": "O=C(C1CCCCC1)N1CC(=O)N2CCc3ccccc3C2C1", "note": "(stereo not given)", "outcome": "inactive; multisex inactive; multispecies inactive"}
{"smiles": "C[C@H]([C@H](O)CCC(C)(C)O)[C@H]1CC[C@@]2(O)C3=CC(=O)[C@@H]4C[C@@H](O)[C@@H](O)C[C@]4(C)[C@H]3CC[C@]12C", "outcome": "active; multisite active; multisex active"}
{"smiles": "CC(Cl)CCl", "note": "(stereo not given)", "outcome": "active; multisex active"}
{"smiles": "CN(C)c1ccc(Cc2ccc(N(C)C)cc2)cc1", "outcome": "active; multisite active; multisex active; multispecies active"}
{"smiles": "COC(=O)NN", "outcome": "inactive; multisex inactive"}
{"smiles": "c1ccc2c(c1)cc1ccc3cccc4ccc2c1c34", "outcome": "active; multisite active; multisex active; multispecies active"}
{"smiles": "CNC(=O)O/N=C(\\SC)C(=O)N(C)C", "outcome": "inactive; multisex inactive; multispecies inactive"}
{"smiles": "C=CCOc1ccccc1OCC(O)CNC(C)C", "note": "(stereo not given)", "outcome": "inactive; multisex inactive; multispecies inactive"}
{"smiles": "N#Cc1ccc(C2CCCc3cncn32)cc1", "note": "(stereo not given)", "outcome": "inactive; multisex inactive"}
{"smiles": "CC1(C)[C@H](C(=O)O[C@H](C#N)c2cccc(Oc3ccccc3)c2)[C@@H]1C=C(Br)Br", "outcome": "inactive; multisex inactive; multispecies inactive"}
{"smiles": "O=C1NCCN1/N=C/c1ccc([N+](=O)[O-])o1", "outcome": "active; multisite active"}
{"smiles": "CC(C)(C)c1cc(O)ccc1O", "outcome": "inactive; multisex inactive"}
{"smiles": "ClCc1cccnc1", "outcome": "active; multisex active; multispecies active"}
{"smiles": "CC1=CC(=C(c2ccc(N)cc2)c2ccc(N)cc2)C=CC1=N", "outcome": "inactive; multisex inactive; multispecies inactive"}
{"smiles": "Nc1ccc([N+](=O)[O-])cc1", "outcome": "inactive; multisex inactive; multispecies inactive"}
{"smiles": "O=P(OCC(Br)CBr)(OCC(Br)CBr)OCC(Br)CBr", "note": "(stereo not given)", "outcome": "active; multisite active; multisex active; multispecies active"}
{"smiles": "CC(C)=CCl", "outcome": "active; multisite active; multisex active; multispecies active"}
{"smiles": "Nc1nc(N)nc(-c2ccccc2)n1", "outcome": "inactive; multisex inactive; multispecies inactive"}
{"smiles": "Nc1ccc(N=Nc2ccc(-c3ccc(N=Nc4c(S(=O)(=O)O)cc5cc(S(=O)(=O)O)c(N=Nc6ccccc6)c(O)c5c4N)cc3)cc2)c(N)c1", "outcome": "active; multisite active; multisex active; multispecies active"}
{"smiles": "COc1ccc(O)c(C(C)(C)C)c1", "outcome": "active; multisex active; multispecies active"}
{"smiles": "CC(Cl)(Cl)Cl", "outcome": "inactive; multisex inactive; multispecies inactive"}
{"smiles": "CCn1nc(C)c2c1C(c1ccccc1)=NCC(=O)N2", "outcome": "active; multisex active"}
{"smiles": "ClC#CCl", "outcome": "active; multisite active; multisex active; multispecies active"}
{"smiles": "COC(C)(C)C", "outcome": "active; multisite active; multisex active; multispecies active"}
{"smiles": "CC(C)(c1ccc(O)cc1)c1ccc(O)cc1", "outcome": "inactive; multisex inactive; multispecies inactive"}
{"smiles": "CSCCC(N)C(=O)O", "note": "(stereo not given)", "outcome": "inactive; multispecies inactive"}
{"smiles": "CC(N)=S", "outcome": "active; multisex active; multispecies active"}
{"smiles": "C=Cc1cccc(C)c1", "outcome": "inactive; multisex inactive; multispecies inactive"}
{"smiles": "CN(N=O)C1=Nc2ccc(Cl)cc2C(c2ccccc2)=[N+]([O-])C1", "outcome": "inactive; multisex inactive"}
{"smiles": "CC[C@H](C)C(=O)O[C@H]1C[C@@H](C)C=C2C=C[C@H](C)[C@H](CC[C@@H]3C[C@@H](O)CC(=O)O3)[C@H]21", "outcome": "active; multisite active; multisex active"}
{"smiles": "COC(=O)C(c1ccccc1)C1CCCCN1", "note": "(stereo not given)", "outcome": "active; multisex active"}
{"smiles": "CCc1nc(N)nc(N)c1-c1ccc(Cl)cc1", "outcome": "inactive; multisex inactive; multispecies inactive"}
{"smiles": "CN(N)C=O", "outcome": "active; multisite active; multisex active; multispecies active"}
{"smiles": "Nc1ccccc1C(=O)OC/C=C/c1ccccc1", "outcome": "active; multisite active; multisex active; multispecies active"}
{"smiles": "O=NN1CCCCCCC1", "outcome": "active; multisite active"}
{"smiles": "NN", "outcome": "active; multisite active; multisex active; multispecies active"}
{"smiles": "Cn1c(=O)c2[nH]cnc2n(C)c1=O", "outcome": "inactive; multisex inactive; multispecies inactive"}
{"smiles": "ClC(Cl)=C(Cl)c1c(Cl)c(Cl)c(Cl)c(Cl)c1Cl", "outcome": "inactive; multisex inactive; multispecies inactive"}
{"smiles": "CCCCN(CCCCO)N=O", "outcome": "active; multisite active; multisex active"}
{"smiles": "O=c1c(O)c(-c2ccc(O)cc2)oc2cc(O)cc(O)c12", "outcome": "inactive; multisex inactive"}
{"smiles": "C[C@](N)(Cc1ccc(O)c(O)c1)C(=O)O", "outcome": "inactive; multisex inactive; multispecies inactive"}
{"smiles": "OCCN(CCO)CCO", "outcome": "active; multisex active"}
{"smiles": "CCCCC/C=N/N(C)C=O", "outcome": "active; multisite active; multisex active"}
{"smiles": "CCCN(CCC)c1c([N+](=O)[O-])cc(C(F)(F)F)cc1[N+](=O)[O-]", "outcome": "active; multisite active"}
{"smiles": "OB(O)O", "outcome": "inactive; multisex inactive"}
{"smiles": "ClCCl", "outcome": "active; multisite active; multisex active; multispecies active"}
{"smiles": "CC(Oc1cc(Cl)c(Cl)cc1Cl)C(=O)O", "note": "(stereo not given)", "outcome": "inactive; multisex inactive"}
{"smiles": "N[C@@H](CCC(=O)O)C(=O)O", "outcome": "inactive; multisex inactive; multispecies inactive"}
{"smiles": "O=C1CCCCCN1", "outcome": "inactive; multisex inactive; multispecies inactive"}
{"smiles": "CCC(Cl)CCC(Cl)C(Cl)CC(Cl)C(Cl)C(Cl)CCl", "note": "(stereo not given)", "outcome": "active; multisite active; multisex active; multispecies active"}
{"smiles": "CC(C)[N+](=O)[O-]", "outcome": "inactive; multisex inactive"}
{"smiles": "CC(O)CN(CC(O)CO)N=O", "note": "(stereo not given)", "outcome": "active; multisite active; multispecies active"}
{"smiles": "CCN(C)N=O", "outcome": "active; multisite active"}
{"smiles": "ClCC(Cl)Cl", "outcome": "active; multisite active; multisex active"}
{"smiles": "C=CCOc1ccc(CC(=O)O)cc1Cl", "outcome": "inactive; multisex inactive"}
{"smiles": "IC(I)I", "outcome": "inactive; multisex inactive; multispecies inactive"}
{"smiles": "Nc1ccc([N+](=O)[O-])cc1N", "outcome": "inactive; multisex inactive; multispecies inactive"}
{"smiles": "Cn1cc(C(=O)[C@@H]2CCc3nc[nH]c3C2)c2ccccc21", "outcome": "inactive; multisex inactive; multispecies inactive"}
{"smiles": "O=S1(=O)CC=CC1", "outcome": "inactive; multisex inactive; multispecies inactive"}
{"smiles": "NNC(=O)c1ccccc1", "outcome": "active; multisite active; multisex active"}
{"smiles": "O=[As](O)(O)O", "outcome": "inactive; multispecies inactive"}
{"smiles": "CCN=[N+]([O-])CC", "outcome": "active; multisite active"}
{"smiles": "O=NN(CC(=O)O)CC(=O)O", "outcome": "inactive; multisex inactive"}
{"smiles": "Clc1cc2c(c(Cl)c1Cl)Oc1c(cc(Cl)c(Cl)c1Cl)O2", "outcome": "active; multisex active; multispecies active"}
{"smiles": "C=C(Cl)Cl", "outcome": "active; multisite active; multisex active"}
{"smiles": "CCN(CC(F)(F)F)N=O", "outcome": "active; multisite active"}
{"smiles": "COc1cc(NC(=O)C(N=Nc2ccc(-c3ccc(N=NC(C(C)=O)C(=O)Nc4cc(OC)c(Cl)cc4OC)c(Cl)c3)cc2Cl)C(C)=O)c(OC)cc1Cl", "note": "(stereo not given)", "outcome": "inactive; multispecies inactive"}
{"smiles": "Cc1ccc(N=Nc2c(O)ccc3ccccc23)c([N+](=O)[O-])c1", "outcome": "active; multisite active; multisex active; multispecies active"}
